In patent publication US4594357A, “Depot antiinflammatory agents” (Troponwerke GmbH & Co., priority 1983, dated 1986):

Key:
[1] = test system: oedema of the rat paw induced by carrageenan; assay: carrageenan-induced rat paw oedema (oedema inhibition); type: in vivo, rat (male, strain Bor: WISW (SPF-Cpb)); conditions: for % Inhibition after depot acid: i.m. 15 mg/kg as an oily solution; for Oedema inhibition: rat
Experimental: The oedema-inhibiting and analgesic action of the test substances following intramuscular administration of an appropriate depot formulation was determined with the aid of oedema of the rat paw induced by carrageenan or by means of the Randall-Selitto test [Arch. int. Pharmacodyn. 111, 409 (1957)].
The experiments were carried out on male rats [strain: Bor: WISW (SPF-Cpb), weight about 200 g]. A depot product was administered once intramuscularly to the animals and the antiinflammatory action on the following days was tested by inducing carrageenan oedema. In each case three groups or 5 animals each were investigated per day, the first group consisting of 5 untreated animals, the 2nd group of 5 animals treated only with solvent (for example viscoleo) and the 3rd group of 5 animals treated with depot product (for example 2-(2-hydroxyethoxy)-ethyl-N(α,α,α-trifluoro-m-tolyl)anthranilate (formula 11) in viscoleo).
The paw volumes were measured by the method of F. Kemper and G. Ameln [Z. ges. exp. Med. 131, 407 (1959)], the difference between the paw volumes 5 hours after oedema provocation and the normal paw volume giving the oedema volume. The analgesic action was determined via pressure pain [Randall-Selitto, see above].
The inhibition of the carrageenan oedema following intramuscular administration of 2-(2-hydroxyethoxy)-ethyl N-(α,α,α-trifluoro-m-tolyl)-anthranilate (formula 11) in viscoleo after various doses in a constant administration volume of 0.03 ml (rat) is as follows: […]

[2] = biological half-life from the inflamed tissue by gas chromatography; type: in vivo; conditions: rat, read-out: biological half-life (HL) from the inflamed tissue (converted)
Experimental: (§1) It was possible to determine the biological half-life (HL) of the compound 11 in rats from the inflamed tissue by means of gas chromatography [H.-D. Dell, J. Fielder, H. Jacobi and J. Kolle, Arzneim.-Forsch./Drug.Res 31, 17-21 (1981)]. The HL from the tissue is about 8.5 hours. In contrast, an HL of 1.29 days is determined for elimination from the tissue (site of administration) following intramuscular administration of 11 in oily solution.

[3] = half-life for elimination from the tissue (site of administration); type: in vivo; conditions: tissue at administration site, im; rat, i.m. administration in oily solution; read-out: HL for elimination from the tissue (site of administration) (converted)
Experimental: as §1

[4] = test system: oedema of the rat paw induced by carrageenan; conditions: carrageenan model, cited from earlier work

O=C(O)c1ccccc1Nc1cccc(C(F)(F)F)c1 [formula 1, N--(α,α,α-Trifluoro-m-tolyl)-anthranilic acid]
% Inhibition after depot acid ([1]; 1 day after injection): 53.8%
% Inhibition after depot acid ([1]; 2 days after injection): 46.5%
% Inhibition after depot acid ([1]; 3 days after injection): 34.3%
% Inhibition after depot acid ([1]; 4 days after injection): 37.1%
% Inhibition after depot acid ([1]; 5 days after injection): 26.8%

O=C(O)c1cccnc1Nc1cccc(C(F)(F)F)c1 [formula 6, 2-(α,α,α-Trifluoro-m-toluidino)-nicotinic acid]
% Inhibition after depot acid ([1]; 1 day after injection): 57.0%
% Inhibition after depot acid ([1]; 2 days after injection): 35.2%
% Inhibition after depot acid ([1]; 3 days after injection): 35.5%
% Inhibition after depot acid ([1]; 4 days after injection): 11.5%

O=C(OCCOCCO)c1ccccc1Nc1cccc(C(F)(F)F)c1 [formula 11, 2-(2-hydroxyethoxy)-ethyl N-(α,α,α-trifluoro-m-tolyl)-anthranilate]
Oedema inhibition ([1]; 10.5 mg/kg, single i.m., in viscoleo, 1 day after injection): 64.0%
Oedema inhibition ([1]; 10.5 mg/kg, single i.m., in viscoleo, 2 days after injection): 61.1%
Oedema inhibition ([1]; 10.5 mg/kg, single i.m., in viscoleo, 3 days after injection): 36.6%
Oedema inhibition ([1]; 10.5 mg/kg, single i.m., in viscoleo, 4 days after injection): 41.6%
Oedema inhibition ([1]; 15 mg/kg, single i.m., in viscoleo, 1 day after injection): 77.6%
Oedema inhibition ([1]; 15 mg/kg, single i.m., in viscoleo, 2 days after injection): 72.2%
Oedema inhibition ([1]; 15 mg/kg, single i.m., in viscoleo, 3 days after injection): 55.5%
Oedema inhibition ([1]; 15 mg/kg, single i.m., in viscoleo, 4 days after injection): 51.3%
Oedema inhibition ([1]; 19.5 mg/kg, single i.m., in viscoleo, 1 day after injection): 77.6%
Oedema inhibition ([1]; 19.5 mg/kg, single i.m., in viscoleo, 2 days after injection): 81.3%
Oedema inhibition ([1]; 19.5 mg/kg, single i.m., in viscoleo, 3 days after injection): 61.6%
Oedema inhibition ([1]; 19.5 mg/kg, single i.m., in viscoleo, 4 days after injection): 52.1%
half-life [2]: ~8.5 h
half-life [3]: 31 h
duration of oedema inhibition after peroral administration ([4]; about 24 hours): corresponds to the control value after about 24 hours
oedema inhibition after peroral administration [4]: powerful oedema inhibition

CCCCOC(=O)c1ccccc1Nc1cccc(C(F)(F)F)c1 [formula 13, butyl N-(α,α,α-trifluoro-m-tolyl)-anthranilate]
Oedema inhibition ([1]; formula 13 in viscoleo, single i.m. 15 mg/kg, 1 day after administration): 53.8%
Oedema inhibition ([1]; formula 13 in viscoleo, single i.m. 15 mg/kg, 2 days after administration): 46.5%
Oedema inhibition ([1]; formula 13 in viscoleo, single i.m. 15 mg/kg, 3 days after administration): 34.3%
Oedema inhibition ([1]; formula 13 in viscoleo, single i.m. 15 mg/kg, 4 days after administration): 37.1%
Oedema inhibition ([1]; formula 13 in viscoleo, single i.m. 15 mg/kg, 5 days after administration): 28.8%
